Common to all, as to assay: biochemical
Holding throughout (design): Thermo Fisher SelectScreen kinase panel: Z'-LYTE and Adapta activity, LanthaScreen binding
(In general: TR-FRET usually uses a lanthanide donor and a delayed reading to cut background.)

One assay concerns the target T1, ZIPK (Homo sapiens, UniProt O43293).
T1 construct: gene DAPK3
In outline: (§1)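 GNE684 profiled at 10 µM across 221 kinases with Z'-LYTE and Adapta activity and LanthaScreen binding formats. Also screened at 10 µM against 468 kinases in KINOMEscan scanMAX binding assay.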

Another assay addresses T2, CK1_gamma1 (Homo sapiens, UniProt Q9HCP0).
T2 construct: gene CSNK1G1
Summed up:
as §1

In another assay the target is T3, Abl (Homo sapiens, UniProt P00519).
T3 construct: gene ABL1
In outline: as §1

For the next assay, the target named is T4, CaMKII_beta (Homo sapiens, UniProt Q13554).
T4 construct: gene CAMK2B
In outline:
as §1

In a further assay the target is LIMK1 (Homo sapiens, UniProt P53667). In outline: as §1
The target in the next assay is NEK4 (Homo sapiens, UniProt P51957). In outline: as §1
In another assay the target is RET (Homo sapiens, UniProt P07949). Summed up:
as §1

For the next assay, the target named is TBK1 (Homo sapiens, UniProt Q9UHD2). Summed up:
as §1

In another assay the target is EPHB1 (Homo sapiens, UniProt P54762). Summed up:
as §1

Among the data in article PMC7206119, “RIP1 inhibition blocks inflammatory diseases but not tumor growth or metastases” (Cell Death and Differentiation, 2019) are inhibition values, retold here.

Chain of RET (P07949 whole entry): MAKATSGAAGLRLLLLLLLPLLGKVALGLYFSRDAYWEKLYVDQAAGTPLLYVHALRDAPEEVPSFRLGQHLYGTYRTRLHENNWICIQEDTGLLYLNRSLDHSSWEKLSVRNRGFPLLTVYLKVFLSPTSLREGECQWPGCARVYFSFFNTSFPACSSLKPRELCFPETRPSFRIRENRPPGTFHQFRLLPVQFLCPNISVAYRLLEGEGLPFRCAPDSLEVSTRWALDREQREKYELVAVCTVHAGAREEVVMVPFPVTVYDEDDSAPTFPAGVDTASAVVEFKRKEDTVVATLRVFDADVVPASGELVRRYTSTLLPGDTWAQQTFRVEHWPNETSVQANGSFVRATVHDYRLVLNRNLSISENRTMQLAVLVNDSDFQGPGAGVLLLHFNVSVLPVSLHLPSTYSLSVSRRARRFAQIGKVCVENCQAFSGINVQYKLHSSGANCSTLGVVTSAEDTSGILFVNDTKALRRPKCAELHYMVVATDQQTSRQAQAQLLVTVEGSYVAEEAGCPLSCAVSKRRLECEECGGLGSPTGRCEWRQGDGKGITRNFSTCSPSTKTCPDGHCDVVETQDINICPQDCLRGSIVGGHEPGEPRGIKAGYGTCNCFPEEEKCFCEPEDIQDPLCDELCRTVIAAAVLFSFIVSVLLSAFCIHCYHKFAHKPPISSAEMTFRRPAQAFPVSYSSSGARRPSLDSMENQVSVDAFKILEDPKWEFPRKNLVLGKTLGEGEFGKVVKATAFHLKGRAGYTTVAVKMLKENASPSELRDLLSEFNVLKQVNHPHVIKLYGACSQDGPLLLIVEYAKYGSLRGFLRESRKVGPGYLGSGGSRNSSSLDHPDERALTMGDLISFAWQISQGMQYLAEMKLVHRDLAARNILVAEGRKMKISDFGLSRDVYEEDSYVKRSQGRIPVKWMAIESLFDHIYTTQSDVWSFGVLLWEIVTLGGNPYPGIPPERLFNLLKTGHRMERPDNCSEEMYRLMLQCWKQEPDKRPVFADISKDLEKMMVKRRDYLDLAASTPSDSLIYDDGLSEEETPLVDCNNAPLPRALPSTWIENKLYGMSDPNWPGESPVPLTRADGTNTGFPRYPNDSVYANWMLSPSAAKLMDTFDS
T1 sequence (O43293 whole entry): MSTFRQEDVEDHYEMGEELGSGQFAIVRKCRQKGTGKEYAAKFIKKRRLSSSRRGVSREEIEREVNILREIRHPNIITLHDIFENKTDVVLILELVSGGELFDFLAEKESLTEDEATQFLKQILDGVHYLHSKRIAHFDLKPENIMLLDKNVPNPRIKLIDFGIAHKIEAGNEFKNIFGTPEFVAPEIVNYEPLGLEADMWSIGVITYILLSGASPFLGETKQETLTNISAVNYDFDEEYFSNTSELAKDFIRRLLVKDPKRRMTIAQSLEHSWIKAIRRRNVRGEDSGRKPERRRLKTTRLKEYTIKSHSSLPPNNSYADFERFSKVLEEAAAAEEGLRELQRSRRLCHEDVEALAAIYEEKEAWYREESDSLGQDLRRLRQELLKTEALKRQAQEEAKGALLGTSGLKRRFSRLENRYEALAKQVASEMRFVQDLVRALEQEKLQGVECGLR
T3 sequence (P00519 whole entry): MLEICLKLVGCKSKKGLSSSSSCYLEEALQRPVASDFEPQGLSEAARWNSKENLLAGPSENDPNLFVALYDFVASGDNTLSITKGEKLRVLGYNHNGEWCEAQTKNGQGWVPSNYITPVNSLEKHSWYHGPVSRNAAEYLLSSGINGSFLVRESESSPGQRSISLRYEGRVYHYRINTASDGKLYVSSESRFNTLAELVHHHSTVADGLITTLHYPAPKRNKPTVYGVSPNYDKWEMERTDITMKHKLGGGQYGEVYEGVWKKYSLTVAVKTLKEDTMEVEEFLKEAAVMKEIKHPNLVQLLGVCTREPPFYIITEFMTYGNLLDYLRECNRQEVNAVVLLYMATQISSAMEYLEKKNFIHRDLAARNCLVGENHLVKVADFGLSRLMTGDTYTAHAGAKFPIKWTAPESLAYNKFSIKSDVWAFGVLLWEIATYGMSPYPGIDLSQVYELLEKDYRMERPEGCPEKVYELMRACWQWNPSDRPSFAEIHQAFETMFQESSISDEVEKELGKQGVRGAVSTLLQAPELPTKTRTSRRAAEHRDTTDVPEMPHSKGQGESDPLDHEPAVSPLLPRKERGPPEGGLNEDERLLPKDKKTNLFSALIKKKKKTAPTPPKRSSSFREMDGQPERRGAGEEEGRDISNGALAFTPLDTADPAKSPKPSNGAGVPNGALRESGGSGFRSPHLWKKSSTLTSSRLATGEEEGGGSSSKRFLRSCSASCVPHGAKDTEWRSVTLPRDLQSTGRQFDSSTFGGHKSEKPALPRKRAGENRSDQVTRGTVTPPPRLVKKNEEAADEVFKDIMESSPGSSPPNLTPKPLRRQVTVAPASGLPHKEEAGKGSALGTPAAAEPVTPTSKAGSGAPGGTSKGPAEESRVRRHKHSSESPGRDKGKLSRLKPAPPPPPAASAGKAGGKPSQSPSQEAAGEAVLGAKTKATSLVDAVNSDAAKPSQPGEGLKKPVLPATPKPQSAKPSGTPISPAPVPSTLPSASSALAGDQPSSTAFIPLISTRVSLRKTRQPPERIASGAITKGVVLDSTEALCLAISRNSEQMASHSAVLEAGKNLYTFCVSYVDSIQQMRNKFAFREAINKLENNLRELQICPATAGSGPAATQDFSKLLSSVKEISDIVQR
T2 sequence (Q9HCP0 whole entry): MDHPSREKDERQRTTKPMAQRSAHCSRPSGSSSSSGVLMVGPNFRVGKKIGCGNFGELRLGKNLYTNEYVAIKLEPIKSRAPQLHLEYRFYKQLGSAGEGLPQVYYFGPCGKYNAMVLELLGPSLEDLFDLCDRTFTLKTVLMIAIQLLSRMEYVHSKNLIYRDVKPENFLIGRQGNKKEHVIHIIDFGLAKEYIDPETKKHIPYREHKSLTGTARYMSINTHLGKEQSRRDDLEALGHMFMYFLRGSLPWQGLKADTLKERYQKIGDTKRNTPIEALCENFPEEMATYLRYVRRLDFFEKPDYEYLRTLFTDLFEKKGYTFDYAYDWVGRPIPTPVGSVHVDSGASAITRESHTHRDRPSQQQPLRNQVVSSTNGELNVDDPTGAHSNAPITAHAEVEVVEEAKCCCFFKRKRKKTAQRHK
T4 sequence (Q13554 whole entry): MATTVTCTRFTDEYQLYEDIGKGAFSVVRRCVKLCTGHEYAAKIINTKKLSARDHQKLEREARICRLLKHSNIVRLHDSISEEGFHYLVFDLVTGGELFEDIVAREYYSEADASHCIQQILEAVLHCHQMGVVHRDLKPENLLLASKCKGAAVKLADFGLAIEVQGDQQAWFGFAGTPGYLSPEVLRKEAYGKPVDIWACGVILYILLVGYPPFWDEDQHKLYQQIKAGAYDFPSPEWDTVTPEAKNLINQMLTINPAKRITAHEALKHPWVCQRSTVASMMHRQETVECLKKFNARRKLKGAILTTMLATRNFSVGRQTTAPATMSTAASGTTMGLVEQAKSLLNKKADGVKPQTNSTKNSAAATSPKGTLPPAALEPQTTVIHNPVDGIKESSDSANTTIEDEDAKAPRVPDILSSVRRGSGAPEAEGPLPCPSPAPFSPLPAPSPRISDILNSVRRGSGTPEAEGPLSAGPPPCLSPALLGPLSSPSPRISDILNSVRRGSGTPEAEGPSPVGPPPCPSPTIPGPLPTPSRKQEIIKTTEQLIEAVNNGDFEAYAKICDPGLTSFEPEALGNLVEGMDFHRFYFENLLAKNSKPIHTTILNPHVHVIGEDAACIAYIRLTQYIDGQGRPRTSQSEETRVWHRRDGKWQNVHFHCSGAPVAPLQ
Chain of EPHB1 (P54762 whole entry): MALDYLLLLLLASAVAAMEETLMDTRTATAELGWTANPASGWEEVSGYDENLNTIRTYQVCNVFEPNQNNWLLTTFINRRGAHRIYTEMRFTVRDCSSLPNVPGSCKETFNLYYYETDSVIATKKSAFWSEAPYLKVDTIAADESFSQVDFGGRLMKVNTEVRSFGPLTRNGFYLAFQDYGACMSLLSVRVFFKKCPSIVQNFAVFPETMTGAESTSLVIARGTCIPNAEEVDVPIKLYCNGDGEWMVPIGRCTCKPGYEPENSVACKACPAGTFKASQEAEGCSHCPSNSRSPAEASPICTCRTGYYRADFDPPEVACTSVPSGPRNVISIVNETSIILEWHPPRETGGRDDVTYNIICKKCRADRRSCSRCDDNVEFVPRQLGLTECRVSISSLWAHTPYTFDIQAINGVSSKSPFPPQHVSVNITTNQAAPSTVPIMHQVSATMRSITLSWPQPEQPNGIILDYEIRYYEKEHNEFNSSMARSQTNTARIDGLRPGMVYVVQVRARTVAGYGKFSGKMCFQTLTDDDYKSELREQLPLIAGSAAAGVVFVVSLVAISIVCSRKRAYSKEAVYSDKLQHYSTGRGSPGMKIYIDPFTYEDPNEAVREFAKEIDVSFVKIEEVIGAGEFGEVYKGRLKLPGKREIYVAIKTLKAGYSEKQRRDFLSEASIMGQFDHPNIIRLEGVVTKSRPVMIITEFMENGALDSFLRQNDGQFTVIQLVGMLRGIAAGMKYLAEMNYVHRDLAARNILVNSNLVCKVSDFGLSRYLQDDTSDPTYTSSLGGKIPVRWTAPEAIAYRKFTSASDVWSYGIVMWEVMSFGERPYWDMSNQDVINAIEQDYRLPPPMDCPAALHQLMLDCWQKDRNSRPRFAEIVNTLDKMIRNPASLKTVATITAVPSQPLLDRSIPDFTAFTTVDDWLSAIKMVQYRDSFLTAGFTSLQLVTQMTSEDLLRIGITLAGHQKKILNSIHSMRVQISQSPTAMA

As to `COc1cc2c(cn1)N(C)C(=O)[C@@H](NC(=O)c1nc3n(n1)[C@H](c1ccccc1)CC3)CC2` [GNE684, (S)-N-((S)-7-methoxy-1-methyl-2-oxo-2,3,4,5-tetrahydro-1H-pyrido[3,4-b]azepin-3-yl)-5-phenyl-6,7-dihydro-5H-pyrrolo[1,2-b][1,2,4]triazole-2-carboxamide], the inhibition at 10 µM on ZIPK turned out to be 1%; at CK1_gamma1, 4%; at Abl, 2%; on CaMKII_beta, 2.5%; at LIMK1, 8.5%; on NEK4, 4.5%. The inhibition at 10 µM stood at 4% on RET, 1% at TBK1 and 3% on EPHB1.

For orientation: inhibition means how much of the control response was suppressed.
